# From ChEMBL document CHEMBL1201862, “PubChem BioAssay data set” (2004)
#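 Values below derive from 48-hour exposures of cells grown in 96-well plates, with endpoints linearly interpolated between the two concentrations bracketing the appropriate inhibition level. At the GI50, growth is halved.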 Calls of active or inactive are those of the source. Rule as the data show it: active = GI50 up to about 1.1 µM and inactive = higher.
# Key:
# Assay in all cases: NCI anticancer screen, dose series, 48 h
# TK-10 = system: TK-10
# HL-60 = system: HL-60
# U-251 = system: U-251
# HOP-92 = system: HOP-92
# HCT-116 = system: HCT-116
# SK-MEL-2 = system: SK-MEL-2
# UACC-257 = system: UACC-257
# ACHN = system: ACHN
# A498 = system: A498
# NCI-H23 = system: NCI-H23
# SK-MEL-5 = system: SK-MEL-5
# IGROV-1 = system: IGROV-1
# Malme-3M = system: Malme-3M
# SF-539 = system: SF-539
# OVCAR-3 = system: OVCAR-3
# SNB-75 = system: SNB-75
# OVCAR-5 = system: OVCAR-5
# LOX IMVI = system: LOX IMVI
Structure (SMILES),GI50 (TK-10),GI50 (HL-60),GI50 (U-251),GI50 (HOP-92),GI50 (HCT-116),GI50 (SK-MEL-2),GI50 (UACC-257),GI50 (ACHN),GI50 (A498),GI50 (NCI-H23),GI50 (SK-MEL-5),GI50 (IGROV-1),GI50 (Malme-3M),GI50 (SF-539),GI50 (OVCAR-3),GI50 (SNB-75),GI50 (OVCAR-5),GI50 (LOX IMVI)
CC12CC3C(CC1SCC(=O)O2)C3(C)C (configuration not stated),> 100 µM (inactive),> 100 µM (inactive),> 100 µM (inactive),> 100 µM (inactive),> 100 µM (inactive),> 100 µM (inactive),> 100 µM (inactive),> 100 µM (inactive),16.6 µM (inactive),> 100 µM (inactive),> 100 µM (inactive),> 100 µM (inactive),> 100 µM (inactive),> 100 µM (inactive),> 100 µM (inactive),> 100 µM (inactive),> 100 µM (inactive),
O=[N+]([O-])C1(CO)COC(CCc2ccccc2)OC1 (configuration not stated),> 100 µM (inactive),> 100 µM (inactive),> 100 µM (inactive),7.13 µM (inactive),> 100 µM (inactive),> 100 µM (inactive),> 100 µM (inactive),> 100 µM (inactive),,> 100 µM (inactive),> 100 µM (inactive),> 100 µM (inactive),> 100 µM (inactive),> 100 µM (inactive),> 100 µM (inactive),> 100 µM (inactive),> 100 µM (inactive),> 100 µM (inactive)
CN(C)CC1CCC/C1=N\O (configuration not stated),> 100 µM (inactive),,> 100 µM (inactive),> 100 µM (inactive),> 100 µM (inactive),> 100 µM (inactive),> 100 µM (inactive),> 100 µM (inactive),> 100 µM (inactive),> 100 µM (inactive),> 100 µM (inactive),> 100 µM (inactive),,> 100 µM (inactive),> 100 µM (inactive),> 100 µM (inactive),> 100 µM (inactive),> 100 µM (inactive)
O=C(CCc1n[nH]c(=S)o1)Nc1cc(Cl)ccc1Cl,> 100 µM (inactive),30.5 µM (inactive),34.4 µM (inactive),> 100 µM (inactive),16.1 µM (inactive),,> 100 µM (inactive),61.1 µM (inactive),> 100 µM (inactive),> 100 µM (inactive),> 100 µM (inactive),> 100 µM (inactive),> 100 µM (inactive),> 100 µM (inactive),> 100 µM (inactive),> 100 µM (inactive),> 100 µM (inactive),
O=C(N/C(=C\c1cccc([N+](=O)[O-])c1)c1nc2ccccc2[nH]1)c1ccccc1,,,44 µM (inactive),40.6 µM (inactive),59.8 µM (inactive),66.7 µM (inactive),> 100 µM (inactive),51.4 µM (inactive),35.8 µM (inactive),49.1 µM (inactive),41.1 µM (inactive),91.4 µM (inactive),> 100 µM (inactive),45.6 µM (inactive),51.2 µM (inactive),36.4 µM (inactive),63.4 µM (inactive),
Cc1ccc(C2=C(c3ccc(C)cc3)C(c3ccc(C)cc3)=C(c3ccc(C)cc3)C2=O)cc1,> 100 µM (inactive),,> 100 µM (inactive),,> 100 µM (inactive),> 100 µM (inactive),> 100 µM (inactive),> 100 µM (inactive),> 100 µM (inactive),> 100 µM (inactive),> 100 µM (inactive),> 100 µM (inactive),> 100 µM (inactive),> 100 µM (inactive),,> 100 µM (inactive),> 100 µM (inactive),
COc1c(Br)cc(Br)c(OC)c1-c1ccc[nH]1,5.83 µM (inactive),31.6 µM (inactive),> 100 µM (inactive),37.3 µM (inactive),97.3 µM (inactive),45.3 µM (inactive),> 100 µM (inactive),> 100 µM (inactive),> 100 µM (inactive),> 100 µM (inactive),> 100 µM (inactive),53.6 µM (inactive),,> 100 µM (inactive),> 100 µM (inactive),22.1 µM (inactive),> 100 µM (inactive),> 100 µM (inactive)
CC(=O)OC12c3ccccc3C1CCCCCC21OCCCO1 (configuration not stated),> 100 µM (inactive),> 100 µM (inactive),> 100 µM (inactive),,> 100 µM (inactive),> 100 µM (inactive),,> 100 µM (inactive),> 100 µM (inactive),> 100 µM (inactive),> 100 µM (inactive),> 100 µM (inactive),,> 100 µM (inactive),> 100 µM (inactive),> 100 µM (inactive),> 100 µM (inactive),> 100 µM (inactive)
O=C(O)/C(Cl)=C(\Cl)C(=O)NC1C2CC3CC(C2)CC1C3 (configuration not stated),,> 100 µM (inactive),> 100 µM (inactive),> 100 µM (inactive),> 100 µM (inactive),,> 100 µM (inactive),> 100 µM (inactive),> 100 µM (inactive),> 100 µM (inactive),> 100 µM (inactive),> 100 µM (inactive),> 100 µM (inactive),> 100 µM (inactive),> 100 µM (inactive),> 100 µM (inactive),> 100 µM (inactive),> 100 µM (inactive)
COC(=O)C1=C(c2cc(OC)c(OC)c(OC)c2)OC(c2ccc3c(c2)OCO3)C1 (configuration not stated),80 µM (inactive),,19.6 µM (inactive),24.8 µM (inactive),32.9 µM (inactive),,54.3 µM (inactive),26.3 µM (inactive),8.95 µM (inactive),25.7 µM (inactive),19.1 µM (inactive),2.12 µM (inactive),72.1 µM (inactive),20.7 µM (inactive),26.9 µM (inactive),39.4 µM (inactive),64.4 µM (inactive),6.28 µM (inactive)
CC(CC(=O)N1C(=O)C(C)(C)[C@@H](O)[C@H]1CC(C)C(Cl)(Cl)Cl)C(Cl)(Cl)Cl (some centres not stated),> 100 µM (inactive),> 100 µM (inactive),> 100 µM (inactive),> 100 µM (inactive),> 100 µM (inactive),,> 100 µM (inactive),> 100 µM (inactive),> 100 µM (inactive),,> 100 µM (inactive),> 100 µM (inactive),> 100 µM (inactive),> 100 µM (inactive),> 100 µM (inactive),> 100 µM (inactive),,> 100 µM (inactive)
CCc1ccc(/C(C)=N/NC(N)=S)cc1,> 100 µM (inactive),,> 100 µM (inactive),> 100 µM (inactive),> 100 µM (inactive),> 100 µM (inactive),,,,> 100 µM (inactive),78.2 µM (inactive),> 100 µM (inactive),25.8 µM (inactive),> 100 µM (inactive),> 100 µM (inactive),,13.1 µM (inactive),
CC1(C)OB(O)OC1(C)C,> 100 µM (inactive),> 100 µM (inactive),,,> 100 µM (inactive),> 100 µM (inactive),> 100 µM (inactive),> 100 µM (inactive),> 100 µM (inactive),> 100 µM (inactive),> 100 µM (inactive),> 100 µM (inactive),> 100 µM (inactive),> 100 µM (inactive),> 100 µM (inactive),> 100 µM (inactive),> 100 µM (inactive),> 100 µM (inactive)
Cc1cc(=O)nc(S(=O)(=O)NC(=S)Nc2ccc(Br)cc2)[nH]1,> 100 µM (inactive),> 100 µM (inactive),> 100 µM (inactive),21 µM (inactive),,> 100 µM (inactive),> 100 µM (inactive),> 100 µM (inactive),> 100 µM (inactive),> 100 µM (inactive),> 100 µM (inactive),73.1 µM (inactive),> 100 µM (inactive),> 100 µM (inactive),> 100 µM (inactive),> 100 µM (inactive),> 100 µM (inactive),
CN(C)C(=O)NC(=S)N(C)C,> 100 µM (inactive),> 100 µM (inactive),0.206 µM (active),> 100 µM (inactive),> 100 µM (inactive),> 100 µM (inactive),> 100 µM (inactive),> 100 µM (inactive),> 100 µM (inactive),> 100 µM (inactive),> 100 µM (inactive),> 100 µM (inactive),> 100 µM (inactive),> 100 µM (inactive),,> 100 µM (inactive),> 100 µM (inactive),
Nc1ncnc2c1ncn2CCOC(c1ccccc1)P(=O)(O)O (configuration not stated),> 100 µM (inactive),> 100 µM (inactive),> 100 µM (inactive),,> 100 µM (inactive),> 100 µM (inactive),> 100 µM (inactive),> 100 µM (inactive),> 100 µM (inactive),> 100 µM (inactive),> 100 µM (inactive),> 100 µM (inactive),> 100 µM (inactive),> 100 µM (inactive),> 100 µM (inactive),> 100 µM (inactive),> 100 µM (inactive),> 100 µM (inactive)
CCCC(=O)OCC(O)CO (configuration not stated),1570 µM (inactive),2920 µM (inactive),> 5000 µM (inactive),3080 µM (inactive),> 5000 µM (inactive),3780 µM (inactive),> 5000 µM (inactive),4830 µM (inactive),,> 5000 µM (inactive),4970 µM (inactive),> 5000 µM (inactive),3610 µM (inactive),> 5000 µM (inactive),,> 5000 µM (inactive),2810 µM (inactive),> 5000 µM (inactive)
CNC(=S)NC1CCCCC1NC(=S)NC (configuration not stated),,> 100 µM (inactive),> 100 µM (inactive),> 100 µM (inactive),> 100 µM (inactive),> 100 µM (inactive),,> 100 µM (inactive),,> 100 µM (inactive),> 100 µM (inactive),> 100 µM (inactive),> 100 µM (inactive),> 100 µM (inactive),> 100 µM (inactive),> 100 µM (inactive),> 100 µM (inactive),> 100 µM (inactive)
